The values below come from US20050222274A1 (priority 2002, published 2005).

The test system of data set [1] is release of APPs produced by α-secretase. In words: release of APPs in the culture medium of neuroblastoma cell line SH-SY5Y. The class given is cell-based. As to conditions: 10 μM; APPs secreted in culture medium of SH-SY5Y; controls = 100. How it is done: It is in fact known that proteolytic cleavage of Alzheimer Precursor Protein (APP) is mediated both by β- and γ-secretase, inducing an increased production of amyloid peptide Ab1-42 (which also plays a central role in the appearance of Alzheimer's disease), and […], giving raise to soluble APPs which have no pathogenic activity (Eslr W. P., Wolfe M. S., Science, 293, 1449-54, 2001).
The effect of the compounds of the invention on the release of APPs produced by α-secretase was evaluated in the culture medium of a neuroblastoma cell line (SH-SY5Y) according to the procedure described by Galbete J. L. et al. in Biochem J. 348, 307-313, 2000.

The conditions of data set [2]: usual extraction and storage conditions; cited from earlier work.

The compound `CC(C)=CCC[C@]1(C)[C@@H](CC=C(C)C)C[C@]2(CC=C(C)C)C(=O)C(Cl)(CC=C(C)C)C(=O)[C@@]1(C(=O)C(C)C)C2=O` (stereo partly shown) [Chlorohyperforin, 8-chlorohyperforin] had an APPs % in data set [1] of 627%.

`CC(C)=CCC[C@]1(C)[C@@H](CC=C(C)C)C[C@@]2(CC=C(C)C)C(=O)[C@]1(C(=O)C(C)C)C(=O)C(CC=C(C)C)=C2O` [Hyperforin]: the APPs % in data set [1] turned out to be 296%. Also, in data set [2], the “stability (in words)” value is listed as “poorly stable”.

For 8-chlorooctahydrohyperforin, the APPs % in data set [1] is 855%.
